From ChEMBL document CHEMBL4507299, “Data for DCP probe PF-04554878” (2021)

Legend:
[1] = system: Tyrosine-protein kinase ABL1 (Homo sapiens), P00519 [F317L]
[2] = system: Tyrosine-protein kinase ABL1 (Homo sapiens), P00519 [Q252H]
[3] = system: ALK tyrosine kinase receptor (Homo sapiens), Q9UM73 [C1156Y]
[4] = target: Serine/threonine-protein kinase BRSK2 (Homo sapiens) (UniProt Q8IWQ3)
[5] = target: Cyclin-dependent kinase 4 (Homo sapiens) (UniProt P11802)
[6] = target: T1, Serine/threonine-protein kinase Chk1 (Homo sapiens) (UniProt O14757)
T1 sequence (whole entry): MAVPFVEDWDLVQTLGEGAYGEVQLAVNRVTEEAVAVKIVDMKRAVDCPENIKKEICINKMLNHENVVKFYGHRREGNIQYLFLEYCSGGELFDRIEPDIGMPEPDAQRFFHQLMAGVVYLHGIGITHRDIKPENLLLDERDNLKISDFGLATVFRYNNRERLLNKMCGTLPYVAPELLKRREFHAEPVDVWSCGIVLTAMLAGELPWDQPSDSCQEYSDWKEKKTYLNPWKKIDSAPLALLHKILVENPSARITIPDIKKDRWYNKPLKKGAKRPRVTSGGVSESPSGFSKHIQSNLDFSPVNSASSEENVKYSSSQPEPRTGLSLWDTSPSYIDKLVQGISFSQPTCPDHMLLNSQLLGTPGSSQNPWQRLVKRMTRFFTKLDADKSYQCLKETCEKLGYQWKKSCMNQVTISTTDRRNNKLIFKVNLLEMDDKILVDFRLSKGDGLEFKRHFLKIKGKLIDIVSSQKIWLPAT

[7] = target: Ephrin type-A receptor 7 (Homo sapiens) (UniProt Q15375)
Chain of Ephrin type-A receptor 7 (Homo sapiens) (Q15375 28-998 limits assumed): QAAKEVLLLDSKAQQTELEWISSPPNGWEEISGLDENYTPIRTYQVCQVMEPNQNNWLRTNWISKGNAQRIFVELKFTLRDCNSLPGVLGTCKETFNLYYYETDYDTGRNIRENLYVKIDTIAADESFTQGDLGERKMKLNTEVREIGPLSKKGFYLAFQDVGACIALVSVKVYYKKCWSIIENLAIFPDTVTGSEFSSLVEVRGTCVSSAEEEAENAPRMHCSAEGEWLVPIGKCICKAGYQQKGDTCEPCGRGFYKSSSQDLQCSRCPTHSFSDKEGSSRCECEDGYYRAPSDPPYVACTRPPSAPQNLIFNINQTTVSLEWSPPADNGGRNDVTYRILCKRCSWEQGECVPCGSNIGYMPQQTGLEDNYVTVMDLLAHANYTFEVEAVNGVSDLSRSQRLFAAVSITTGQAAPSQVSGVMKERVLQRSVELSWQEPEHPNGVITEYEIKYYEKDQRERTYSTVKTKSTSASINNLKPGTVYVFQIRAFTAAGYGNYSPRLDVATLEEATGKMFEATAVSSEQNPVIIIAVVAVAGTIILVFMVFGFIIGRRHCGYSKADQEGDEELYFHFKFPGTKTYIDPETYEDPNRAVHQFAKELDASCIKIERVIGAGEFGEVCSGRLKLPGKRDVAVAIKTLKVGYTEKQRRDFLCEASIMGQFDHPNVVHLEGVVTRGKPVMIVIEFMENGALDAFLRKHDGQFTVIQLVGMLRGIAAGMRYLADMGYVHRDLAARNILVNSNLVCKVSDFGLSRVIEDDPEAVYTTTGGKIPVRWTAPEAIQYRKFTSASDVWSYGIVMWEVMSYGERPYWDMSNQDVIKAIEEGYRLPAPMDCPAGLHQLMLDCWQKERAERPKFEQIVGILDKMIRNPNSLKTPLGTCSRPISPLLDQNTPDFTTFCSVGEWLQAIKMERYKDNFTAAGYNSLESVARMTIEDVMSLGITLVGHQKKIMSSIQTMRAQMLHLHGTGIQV

[8] = target: Receptor tyrosine-protein kinase erbB-4 (Homo sapiens) (UniProt Q15303)
[9] = system: Receptor-type tyrosine-protein kinase FLT3 (Homo sapiens), P36888 [N841I]
[10] = target: Vascular endothelial growth factor receptor 3 (Homo sapiens) (UniProt P35916)
Chain of Vascular endothelial growth factor receptor 3 (Homo sapiens) (P35916 whole entry): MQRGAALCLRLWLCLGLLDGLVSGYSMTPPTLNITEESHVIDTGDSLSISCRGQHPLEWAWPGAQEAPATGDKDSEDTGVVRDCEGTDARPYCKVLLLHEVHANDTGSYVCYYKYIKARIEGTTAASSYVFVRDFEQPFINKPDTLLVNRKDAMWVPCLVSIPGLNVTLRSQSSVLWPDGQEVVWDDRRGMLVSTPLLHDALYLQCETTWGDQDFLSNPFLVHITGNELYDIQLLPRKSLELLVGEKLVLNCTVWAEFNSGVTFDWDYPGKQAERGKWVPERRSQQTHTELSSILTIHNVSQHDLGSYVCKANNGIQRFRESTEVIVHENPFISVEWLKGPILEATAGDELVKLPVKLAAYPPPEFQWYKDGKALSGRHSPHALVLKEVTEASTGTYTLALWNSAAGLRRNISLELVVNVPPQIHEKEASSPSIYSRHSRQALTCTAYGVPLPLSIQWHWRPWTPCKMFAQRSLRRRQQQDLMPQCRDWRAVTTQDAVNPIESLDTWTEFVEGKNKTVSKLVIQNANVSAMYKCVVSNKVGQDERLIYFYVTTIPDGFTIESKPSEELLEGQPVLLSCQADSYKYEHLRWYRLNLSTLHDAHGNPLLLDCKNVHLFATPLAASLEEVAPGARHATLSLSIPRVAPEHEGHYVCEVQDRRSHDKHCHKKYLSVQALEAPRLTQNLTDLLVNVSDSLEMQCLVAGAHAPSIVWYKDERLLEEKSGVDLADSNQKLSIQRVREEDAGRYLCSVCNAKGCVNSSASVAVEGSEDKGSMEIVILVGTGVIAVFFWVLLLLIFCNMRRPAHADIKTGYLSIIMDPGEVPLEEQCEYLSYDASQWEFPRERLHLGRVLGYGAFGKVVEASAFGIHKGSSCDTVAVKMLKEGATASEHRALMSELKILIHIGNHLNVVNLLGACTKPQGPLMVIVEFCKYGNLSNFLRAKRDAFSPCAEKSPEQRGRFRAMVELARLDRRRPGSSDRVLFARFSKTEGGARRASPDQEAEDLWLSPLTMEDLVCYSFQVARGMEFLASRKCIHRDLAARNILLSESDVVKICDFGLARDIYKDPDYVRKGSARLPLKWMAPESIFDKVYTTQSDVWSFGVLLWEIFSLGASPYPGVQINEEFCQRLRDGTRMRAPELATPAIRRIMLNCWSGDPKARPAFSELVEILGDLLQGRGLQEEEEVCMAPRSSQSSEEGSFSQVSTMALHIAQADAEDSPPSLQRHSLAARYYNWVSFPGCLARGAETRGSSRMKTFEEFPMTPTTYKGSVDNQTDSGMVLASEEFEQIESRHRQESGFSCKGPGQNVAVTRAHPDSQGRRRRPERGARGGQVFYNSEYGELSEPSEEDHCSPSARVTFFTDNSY

[11] = target: Glycogen synthase kinase-3 beta (Homo sapiens, UniProt P49841)
[12] = target: T2, Inhibitor of nuclear factor kappa-B kinase subunit epsilon (Homo sapiens) (UniProt Q14164)
T2 sequence (whole entry): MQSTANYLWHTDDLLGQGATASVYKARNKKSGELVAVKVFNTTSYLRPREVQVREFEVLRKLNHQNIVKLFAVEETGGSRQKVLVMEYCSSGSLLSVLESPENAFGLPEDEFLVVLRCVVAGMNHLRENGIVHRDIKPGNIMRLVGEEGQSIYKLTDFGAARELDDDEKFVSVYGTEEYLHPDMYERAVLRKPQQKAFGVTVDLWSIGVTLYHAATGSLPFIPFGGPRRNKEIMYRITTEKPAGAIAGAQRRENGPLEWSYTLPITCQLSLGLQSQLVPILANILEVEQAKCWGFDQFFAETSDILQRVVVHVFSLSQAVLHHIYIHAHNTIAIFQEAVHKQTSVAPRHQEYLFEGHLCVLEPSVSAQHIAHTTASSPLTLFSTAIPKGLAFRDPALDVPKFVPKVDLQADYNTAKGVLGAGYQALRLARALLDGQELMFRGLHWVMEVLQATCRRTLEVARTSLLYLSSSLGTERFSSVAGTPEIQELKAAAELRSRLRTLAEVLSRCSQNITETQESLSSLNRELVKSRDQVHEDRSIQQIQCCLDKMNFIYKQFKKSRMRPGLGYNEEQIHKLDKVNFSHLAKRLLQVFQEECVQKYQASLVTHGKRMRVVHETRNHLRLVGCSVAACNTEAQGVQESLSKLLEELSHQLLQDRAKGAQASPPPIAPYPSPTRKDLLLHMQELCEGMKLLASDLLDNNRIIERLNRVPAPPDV

[13] = target: Tyrosine-protein kinase JAK2 (Homo sapiens) (UniProt O60674)
[14] = target: Mitogen-activated protein kinase 9 (Homo sapiens) (UniProt P45984)
[15] = system: Mast/stem cell growth factor receptor Kit (Homo sapiens), P10721 [V559D,T670I]
Chain of Mast/stem cell growth factor receptor Kit (Homo sapiens), P10721 [V559D,T670I] (P10721 whole entry V559D/T670I): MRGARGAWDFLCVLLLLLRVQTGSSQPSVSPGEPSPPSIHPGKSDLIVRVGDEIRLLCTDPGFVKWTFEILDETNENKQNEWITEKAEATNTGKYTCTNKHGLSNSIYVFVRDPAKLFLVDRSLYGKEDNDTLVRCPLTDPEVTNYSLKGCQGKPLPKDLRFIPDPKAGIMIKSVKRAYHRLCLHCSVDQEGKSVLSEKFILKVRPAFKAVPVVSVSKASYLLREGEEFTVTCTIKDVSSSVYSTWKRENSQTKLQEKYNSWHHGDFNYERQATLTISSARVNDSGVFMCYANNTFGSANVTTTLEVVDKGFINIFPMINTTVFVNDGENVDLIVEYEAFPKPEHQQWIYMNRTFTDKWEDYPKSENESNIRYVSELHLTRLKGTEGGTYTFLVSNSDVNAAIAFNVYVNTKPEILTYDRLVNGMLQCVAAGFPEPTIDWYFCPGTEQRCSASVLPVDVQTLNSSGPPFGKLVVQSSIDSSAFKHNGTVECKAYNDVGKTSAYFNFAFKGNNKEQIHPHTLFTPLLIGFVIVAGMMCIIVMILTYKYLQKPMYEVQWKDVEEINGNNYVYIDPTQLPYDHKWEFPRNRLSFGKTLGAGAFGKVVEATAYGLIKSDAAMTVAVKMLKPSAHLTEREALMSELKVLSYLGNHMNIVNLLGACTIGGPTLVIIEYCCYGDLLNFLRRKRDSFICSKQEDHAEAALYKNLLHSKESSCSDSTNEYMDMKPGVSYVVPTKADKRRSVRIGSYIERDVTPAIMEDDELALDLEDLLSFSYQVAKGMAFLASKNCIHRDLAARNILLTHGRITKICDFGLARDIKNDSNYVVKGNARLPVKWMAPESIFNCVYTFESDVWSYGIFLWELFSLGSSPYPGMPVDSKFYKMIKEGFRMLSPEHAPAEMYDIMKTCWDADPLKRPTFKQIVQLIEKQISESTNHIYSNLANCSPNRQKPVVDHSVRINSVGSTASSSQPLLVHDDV

[16] = target: Muscle, skeletal receptor tyrosine-protein kinase (Homo sapiens) (UniProt O15146)
[17] = target: Myosin light chain kinase 2, skeletal/cardiac muscle (Homo sapiens) (UniProt Q9H1R3)
[18] = target: Cyclin-dependent kinase 18 (Homo sapiens) (UniProt Q07002)
Chain of Cyclin-dependent kinase 18 (Homo sapiens) (Q07002 whole entry, canonical isoform): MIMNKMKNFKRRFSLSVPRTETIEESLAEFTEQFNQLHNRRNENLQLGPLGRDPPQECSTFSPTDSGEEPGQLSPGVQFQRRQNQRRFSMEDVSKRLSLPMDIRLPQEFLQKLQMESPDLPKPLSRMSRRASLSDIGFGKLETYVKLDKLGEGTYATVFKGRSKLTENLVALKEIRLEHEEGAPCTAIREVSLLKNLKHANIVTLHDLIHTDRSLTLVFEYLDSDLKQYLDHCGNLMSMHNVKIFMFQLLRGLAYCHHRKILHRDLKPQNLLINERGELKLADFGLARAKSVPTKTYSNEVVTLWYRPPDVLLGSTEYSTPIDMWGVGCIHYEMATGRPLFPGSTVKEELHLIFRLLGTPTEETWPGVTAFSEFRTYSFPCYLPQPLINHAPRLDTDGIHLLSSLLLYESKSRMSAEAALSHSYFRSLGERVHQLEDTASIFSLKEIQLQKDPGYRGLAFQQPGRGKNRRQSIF

[19] = system: Phosphatidylinositol 4,5-bisphosphate 3-kinase catalytic subunit alpha isoform (Homo sapiens), P42336 [E545A]
[20] = target: Phosphatidylinositol 5-phosphate 4-kinase type-2 gamma (Homo sapiens) (UniProt Q8TBX8)
[21] = target: cAMP-dependent protein kinase catalytic subunit alpha (Homo sapiens) (UniProt P17612)
[22] = target: cAMP-dependent protein kinase catalytic subunit PRKX (Homo sapiens) (UniProt P51817)
Chain of cAMP-dependent protein kinase catalytic subunit PRKX (Homo sapiens) (P51817 whole entry): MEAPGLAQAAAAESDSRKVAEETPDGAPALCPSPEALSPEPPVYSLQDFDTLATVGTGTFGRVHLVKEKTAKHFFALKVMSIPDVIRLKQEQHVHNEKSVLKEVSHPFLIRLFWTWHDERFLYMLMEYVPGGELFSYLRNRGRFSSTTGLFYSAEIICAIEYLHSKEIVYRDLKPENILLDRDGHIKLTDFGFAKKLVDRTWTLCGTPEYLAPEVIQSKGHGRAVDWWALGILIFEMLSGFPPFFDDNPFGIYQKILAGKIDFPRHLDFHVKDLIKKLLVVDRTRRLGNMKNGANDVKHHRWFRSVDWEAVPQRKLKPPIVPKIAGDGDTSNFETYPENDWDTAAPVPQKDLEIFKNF

[23] = target: Ribosomal protein S6 kinase alpha-4 (Homo sapiens) (UniProt O75676)
[24] = target: Uncharacterized serine/threonine-protein kinase SBK3 (Homo sapiens) (UniProt P0C264)
Chain of Uncharacterized serine/threonine-protein kinase SBK3 (Homo sapiens) (P0C264 whole entry): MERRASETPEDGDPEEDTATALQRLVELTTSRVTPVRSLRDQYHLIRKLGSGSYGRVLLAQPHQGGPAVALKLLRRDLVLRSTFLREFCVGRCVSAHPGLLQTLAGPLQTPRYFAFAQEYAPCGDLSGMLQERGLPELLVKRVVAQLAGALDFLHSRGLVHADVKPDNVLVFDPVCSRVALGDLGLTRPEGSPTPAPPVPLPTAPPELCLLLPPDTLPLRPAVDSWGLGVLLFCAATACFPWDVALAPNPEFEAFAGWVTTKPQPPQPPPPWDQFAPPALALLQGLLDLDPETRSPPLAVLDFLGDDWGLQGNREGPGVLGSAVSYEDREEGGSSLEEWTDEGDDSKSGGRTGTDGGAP

[25] = target: Serine/threonine-protein kinase TAO1 (Homo sapiens) (UniProt Q7L7X3)
[26] = target: Serine/threonine-protein kinase TNNI3K (Homo sapiens) (UniProt Q59H18)
[27] = target: Mitogen-activated protein kinase kinase kinase 19 (Homo sapiens) (UniProt Q56UN5)
[28] = target: 5-hydroxytryptamine receptor 2B (Homo sapiens) (UniProt P41595); conditions: Compound concentration 10.0 uM
[29] = target: Alpha-1A adrenergic receptor (Homo sapiens) (UniProt P35348); conditions: Compound concentration 10.0 uM
Chain of Alpha-1A adrenergic receptor (Homo sapiens) (P35348 whole entry): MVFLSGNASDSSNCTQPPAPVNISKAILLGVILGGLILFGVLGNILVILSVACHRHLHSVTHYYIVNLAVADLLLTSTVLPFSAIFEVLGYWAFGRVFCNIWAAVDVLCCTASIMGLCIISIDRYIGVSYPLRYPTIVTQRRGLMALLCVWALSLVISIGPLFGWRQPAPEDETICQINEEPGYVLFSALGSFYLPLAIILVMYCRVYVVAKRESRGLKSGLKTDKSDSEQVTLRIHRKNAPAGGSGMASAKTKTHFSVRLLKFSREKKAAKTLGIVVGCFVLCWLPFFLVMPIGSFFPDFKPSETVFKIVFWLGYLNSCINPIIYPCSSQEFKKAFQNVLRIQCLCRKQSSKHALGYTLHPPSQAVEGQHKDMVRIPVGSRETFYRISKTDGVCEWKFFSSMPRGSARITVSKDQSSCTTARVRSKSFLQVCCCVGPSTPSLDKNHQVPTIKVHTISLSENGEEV

[30] = Compound concentration 100.0 nM
[31] = Compound concentration 1000.0 nM

CNC(=O)c1ccc(Nc2ncc(C(F)(F)F)c(NCc3nccnc3N(C)S(C)(=O)=O)n2)cc1 [DEFACTINIB]
active: residual activity [9, 30] 0% | residual activity [10, 30] 39% | residual activity [13, 30] 4.8% | residual activity [20, 30] 40% | residual activity [27, 30] 1.7%
inactive: residual activity [1, 30] 100% | residual activity [2, 30] 100% | residual activity [3, 30] 74% | residual activity [4, 30] 100% | residual activity [5, 30] 100% | residual activity [6, 30] 100% | residual activity [7, 30] 68% | residual activity [8, 30] 84% | residual activity [11, 30] 87% | residual activity [12, 30] 99% | residual activity [14, 30] 95% | residual activity [15, 30] 100% | residual activity [16, 30] 100% | residual activity [17, 30] 63% | residual activity [18, 30] 68% | residual activity [19, 30] 98% | residual activity [21, 30] 100% | residual activity [22, 30] 95% | residual activity [23, 30] 57% | residual activity [24, 30] 100% | residual activity [25, 30] 50% | residual activity [26, 30] 100% | inhibition [28] 5.73% | inhibition [29] -4.42%

CN(c1ccnc(CNc2nc(Nc3ccc4c(c3)CC(=O)N4)ncc2C(F)(F)F)n1)S(C)(=O)=O [PF-00911705]
inactive: residual activity [1, 31] 71% | residual activity [3, 31] 77% | residual activity [4, 31] 97% | residual activity [5, 31] 63% | residual activity [6, 31] 57% | residual activity [7, 31] 87% | residual activity [10, 31] 92% | residual activity [11, 31] 57% | residual activity [14, 31] 79% | residual activity [15, 31] 100% | residual activity [16, 31] 92% | residual activity [17, 31] 53% | residual activity [18, 31] 100% | residual activity [19, 31] 90% | residual activity [21, 31] 81% | residual activity [23, 31] 72% | residual activity [24, 31] 100% | residual activity [26, 31] 73% | inhibition [28] 13.5% | inhibition [29] -3.55%
active: residual activity [2, 31] 49% | residual activity [8, 31] 46% | residual activity [9, 31] 0% | residual activity [12, 31] 18% | residual activity [13, 31] 3.8% | residual activity [20, 31] 42% | residual activity [22, 31] 15% | residual activity [25, 31] 3.7% | residual activity [27, 31] 0.4%
